The term IC50 denotes the concentration needed to halve the response being measured. Low readings indicate inhibition by little substance, high ones a need for much substance.

In the assay the target is T1, angiotensin converting enzyme (Oryctolagus cuniculus, UniProt P12822).
T1 sequence (P12822 34-1310): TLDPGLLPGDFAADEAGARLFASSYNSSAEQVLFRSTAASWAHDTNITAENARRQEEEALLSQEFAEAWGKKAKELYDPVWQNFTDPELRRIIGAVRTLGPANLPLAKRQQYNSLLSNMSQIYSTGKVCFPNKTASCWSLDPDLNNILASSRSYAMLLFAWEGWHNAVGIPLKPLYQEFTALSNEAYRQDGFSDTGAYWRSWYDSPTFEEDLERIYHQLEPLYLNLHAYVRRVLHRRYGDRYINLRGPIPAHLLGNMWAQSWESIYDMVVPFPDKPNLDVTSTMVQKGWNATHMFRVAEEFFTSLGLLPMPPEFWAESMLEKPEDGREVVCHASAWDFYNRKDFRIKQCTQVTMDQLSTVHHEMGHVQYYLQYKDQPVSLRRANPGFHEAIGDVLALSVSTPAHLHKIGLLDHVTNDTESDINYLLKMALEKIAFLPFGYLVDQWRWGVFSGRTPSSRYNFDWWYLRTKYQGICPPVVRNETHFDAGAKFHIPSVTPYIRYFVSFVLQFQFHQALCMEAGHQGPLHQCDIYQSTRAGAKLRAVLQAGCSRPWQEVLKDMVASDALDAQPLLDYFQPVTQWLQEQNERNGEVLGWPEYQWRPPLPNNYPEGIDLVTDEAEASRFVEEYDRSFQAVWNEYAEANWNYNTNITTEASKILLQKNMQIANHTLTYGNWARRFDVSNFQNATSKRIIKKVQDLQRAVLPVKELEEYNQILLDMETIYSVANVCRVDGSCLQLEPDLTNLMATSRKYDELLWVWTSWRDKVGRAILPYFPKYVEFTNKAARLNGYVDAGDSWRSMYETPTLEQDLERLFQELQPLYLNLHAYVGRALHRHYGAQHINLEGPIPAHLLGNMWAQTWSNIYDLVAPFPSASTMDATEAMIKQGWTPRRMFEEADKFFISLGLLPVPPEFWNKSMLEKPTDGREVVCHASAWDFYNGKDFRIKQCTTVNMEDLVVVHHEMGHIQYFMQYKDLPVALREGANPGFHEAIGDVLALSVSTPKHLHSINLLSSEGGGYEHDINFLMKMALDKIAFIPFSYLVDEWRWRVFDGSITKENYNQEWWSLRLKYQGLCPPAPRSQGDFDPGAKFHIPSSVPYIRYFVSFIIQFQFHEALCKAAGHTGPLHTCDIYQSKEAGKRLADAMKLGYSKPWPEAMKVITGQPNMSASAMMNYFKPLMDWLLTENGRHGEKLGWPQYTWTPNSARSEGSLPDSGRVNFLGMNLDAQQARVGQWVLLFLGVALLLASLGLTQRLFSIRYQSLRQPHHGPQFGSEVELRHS
The experiment in a line: in vitro inhibition of angiotensin converting enzyme (cleavage of hippuryl-histidyl-leucine). In kind it is biochemical. The note with it: substrate hippuryl-histidyl-leucine 2 mM; potassium phosphate buffer pH 8.3, 100 mM; NaCl 300 mM; 24 minutes at 37° C. Here is the method: The activity of the compounds of formula I and the aforementioned salts in inhibiting angiotensin converting enzyme in vitro can be determined by the following test.
The method used is based on the method of Cushman and Cheung (Biochem. Pharmacol., 20. 1637-1648) incorporating the modifications introduced by Hayakari et al (Anal. Biochem., 84. 361-369). The substrate, which is hippuryl-histidyl-leucine, 2 mM, is incubated with angiotensin converting enzyme in the presence or absence of various concentrations of test substance in potassium phosphate buffer (pH 8.3; 100 mM) containing sodium chloride (300 mM) for 24 minutes at 37° C. (total value 500 μl). If the test substance is an ester, it is appropriate to cleave it by means of hog liver esterase before carrying out the test. The reaction is terminated by the addition of 3 ml of potassium phosphate buffer (pH 8.3; 200 mM) at 0° C. 2,4,6-Trichloro-s-triazine (3%) in 1.5 ml of dioxane and the mixture is agitated until the yellow chromophore has developed fully. The samples are then centrifuged to remove any precipitate which has formed. The yellow chromophore formed by the reaction of the 2,4,6-trichloro-s-triazine with free hippuric acid is measured spectrophoto metrically at 382 nm. The IC50 values are defined as the concentration of test substance which reduces by 50% the cleavage of hippuryl-histidyl-leucine by antiotensin converting enzyme under the aforementioned conditions.
The results obtained in the foregoing test using representative compounds of formula I as the test substance are compiled in the following Table: […]
`O=C(O)[C@@H]1CCCN2C(=O)CCCC(CS)C(=O)N12` (stereo partly drawn) [Compound C, decahydro-10(R,S)-mercaptomethyl-6,11-dioxo-6H-pyridazo[1,2-a][1,2]diazocine-1(S)-carboxylic acid] gave an IC50 of 19 nM.
`O=C(O)[C@@H]1CCCN2C(=O)CN(Cc3ccccc3)C(CS)C(=O)N12` (single isomer, unassigned) [Compound D] displayed an IC50 of 51 nM.
To `O=C(O)[C@@H]1CCCN2C(=O)CC[C@H](CS)C(=O)N12` [Compound A, octahydro-9(S)-mercaptomethyl-6,10-dioxo-6H-pyridazo[1,2-a][1,2]diazepine-1(S)-carboxylic acid] belongs 4 nM; to `O=C(O)[C@@H]1CCCN2CCC[C@H](CS)C(=O)N12` [Compound B, octahydro-9(S)-mercaptomethyl-10-oxo-pyridazo[1,2-a][1,2]diazepine-1(S)-carboxylic acid], 2.6 nM.

The record behind these values is patent publication US4692438A, “Pyridazo-diazepines, diazocines, and -triazepines having anti-hypertensive activity” (Hoffmann-La Roche Inc., priority 1984, dated 1987).
